From patent US12186303B2, “Feed additive for cattle comprising n-acetyl-l-tryptophan as active ingredient” (CJ CHEILJEDANG CORPORATION, priority 2018, dated 2025)

Columns and labels:
[1] = tested on: Korean native steers; assay: Body weight, average daily gain and feed conversion ratio according to NALT feeding under cold stress conditions; type: in vivo, Korean native cattle
Description: In the present disclosure, 8 Korean native steers (8.3±0.72 months old on average) were selected and used. […] Analysis of chemical composition (moisture, crude protein, crude fat, crude ash, etc.) and amino acids (19 types) of the basal diet stored at −20° C. was performed, and the results are shown in Table 3. After grouping the animals by statistical analysis of initial body weights, the animals were bred in 1.0×1.5 m^2 individual pens during the experiment period. The feed was offered based on an amount of dry matter of daily total mixed ration (TMR) per head. After 7 days of an adaptation period for N-acetyl-L-tryptophan (NALT), a mixture of 0.1% N-acetyl-L-tryptophan (NALT) and the total mixed ration was fed to individual animals every morning at 8 a.m. for 6 weeks, and water was available ad libitum. Total amounts of L-tryptophan ingested by the control and NALT-treated group by feeding NALT were 7.37 g/day/head and 16.26 g/day/head, respectively. The experiment was performed such that the NALT-treated group ingested 8.89 g/day/head more L-tryptophan than that of the control. Meanwhile, results of growth performance analysis (body weight and average feed intake) and genetic analysis of loin tissue were obtained by statistically comparing and analyzing significant differences between the control and the NALT-treated group, and results of hematological analysis were obtained via statistical comparison and analysis depending on NALT treatment, experiment period (days), and interaction (treatment×days). These numerical values were expressed as average values, and a significance test was performed at the 5% level using Student's t-test by using the JMP 5.0 software package (SAS Institute Inc., Cary, NC, USA). An average temperature during the adaptation period (days 0-6) was 4.3° C., and average temperatures during the experiment period were in the range of −6.2° C. to 4.2° C., relatively low compared to that of the adaptation period. In addition, an average temperature of the entire experiment period (days 7-48) was −1.0° C. Initial weight (day 0), intermediate weight (day 27), and end weight (day 48) of sentinel animals were measured, i.e., three times in total, before offering morning feed. The average daily gain (average daily weight gain, ADG) of the sentinel animals was calculated by dividing the differences in weight, between the initial weight and the intermediate weight and between the intermediate weight and the end weight, by the total number of days of the experiment.

[2] = tested on: Korean native steers; assay: Serum hematological properties (biochemical autoanalyzer) under heat stress conditions; type: in vivo, Korean native cattle; set-up: GLO (globulin = TP − ALB) / BUN (blood urea nitrogen) / GLU (glucose) / NEFA (non-esterified fatty acid) / TG (triglyceride) / Na (sodium): unit not given here; conditions: for ALB (albumin) / BUN (blood urea nitrogen) / CPK (creatinine phosphokinase) / GLO (globulin = TP − ALB) / GLU (glucose) / K (potassium) / NEFA (non-esterified fatty acid) / Na (sodium) / TG (triglyceride) / TP (total protein): 0.1% NALT, serum
Excerpt: After grouping the animals by statistical analysis of initial body weights, the animals were bred in 1.0×1.5 m^2 individual pens during the experiment period. The feed was offered based on an amount of dry matter of daily total mixed ration (TMR) per head. After 7 days of an adaptation period for N-acetyl-L-tryptophan (NALT), a mixture of 0.1% N-acetyl-L-tryptophan (NALT) and the total mixed ration was fed to individual animals every morning at 8 a.m. for 6 weeks, and water was available ad libitum. Total amounts of L-tryptophan ingested by the control and the experimental group (NALT-treated group) by feeding NALT were 6.0 g/day/head and 18.2 g/day/head, respectively. The experiment was performed such that the NALT-treated group ingested 12.2 g/day/head more L-tryptophan than the control.
Meanwhile, results of growth performance analysis (body weight and average feed intake) and genetic analysis of loin tissue were obtained by statistically comparing and analyzing significant differences between the control and the NALT-treated group, and results of hematological analysis were obtained via statistical comparison and analysis depending on NALT treatment, experiment period (days), and interaction (treatment×days). These numerical values were expressed as average values, and a significance test was performed at the 5% level using Student's t-test by using a JMP 5.0 software package (SAS Institute Inc., Cary, NC, USA).
Blood samples were collected from a jugular vein of each sentinel animal before offering the feed at the starting day of the experiment (week 0), the mid-point of the experiment (week 5), and the final day of the experiment (week 10) and stored in a vacutainer (Becton Dickinson, Franklin Lakes, NJ, USA). Complete blood cell count (CBC) was performed using whole blood using a VetScan HM2 (Abaxis, Union City, CA, USA), and hematological properties were identified using serum with a biochemical autoanalyzer (FUJI DRI-CHEM 7000, Fujifilm, Tokyo, Japan). In addition, total protein (TP), albumin (ALB), creatinine phosphokinase (CPK), and blood urea nitrogen (BUN), which are related to blood protein metabolism, were analyzed; triglycerides (TG) and non-esterified fatty acid (NEFA), which are related to energy metabolism, were analyzed; and sodium (Na), chlorine (CI), and potassium (K), which are blood electrolytes, were analyzed.

**Q.** What does the source list for CC(=O)N[C@@H](Cc1c[nH]c2ccccc12)C(=O)O [NALT, N-acetyl-L-tryptophan]?
**A.** Decrease of feed conversion ratio compared to the control ([1]; 0.1% NALT in TMR): 63%; Feed conversion ratio of the NALT-treated group relative to the control ([1]; 0.1% NALT in TMR): 37%; Body weight ([1]; 0.1% NALT in TMR, Day 0 (initial weight)): 279.7 kg; Body weight ([1]; 0.1% NALT in TMR, Day 27): 301.5 kg; Feed conversion ratio ([1]; 0.1% NALT in TMR, Day 27): 13.3; ADG (average daily gain) ([1]; 0.1% NALT in TMR, Day 27 (day 0 to day 27)): 0.753 kg/day; Body weight ([1]; 0.1% NALT in TMR, Day 48): 315.7 kg; Feed conversion ratio ([1]; 0.1% NALT in TMR, Day 48): 4.82; ADG (average daily gain) ([1]; 0.1% NALT in TMR, Day 48 (day 27 to day 48)): 0.766 kg/day; Total weight change compared with the control ([1]; day 27 and day 48): no statistically significant difference; Hematological analysis indicators (Table 14), effect of treatment with 0.1% NALT [2]: No statistically significant difference; ALB (albumin) ([2]; Day 0): 3.3; BUN (blood urea nitrogen) ([2]; Day 0): 16.7; CPK (creatinine phosphokinase) ([2]; Day 0): 112; GLO (globulin = TP − ALB) ([2]; Day 0): 2.8; GLU (glucose) ([2]; Day 0): 49.6; K (potassium) ([2]; Day 0): 4.7; NEFA (non-esterified fatty acid) ([2]; Day 0): 139; Na (sodium) ([2]; Day 0): 141.3; TG (triglyceride) ([2]; Day 0): 25.5; TP (total protein) ([2]; Day 0): 6.1; ALB (albumin) ([2]; Day 35): 3.6; BUN (blood urea nitrogen) ([2]; Day 35): 19.8; CPK (creatinine phosphokinase) ([2]; Day 35): 267; GLO (globulin = TP − ALB) ([2]; Day 35): 2.9; GLU (glucose) ([2]; Day 35): 39.1; K (potassium) ([2]; Day 35): 4.8; NEFA (non-esterified fatty acid) ([2]; Day 35): 167; Na (sodium) ([2]; Day 35): 142.6; TG (triglyceride) ([2]; Day 35): 19.1; TP (total protein) ([2]; Day 35): 6.5; ALB (albumin) ([2]; Day 70): 3.5; BUN (blood urea nitrogen) ([2]; Day 70): 18.5; CPK (creatinine phosphokinase) ([2]; Day 70): 276; GLO (globulin = TP − ALB) ([2]; Day 70): 2.9; GLU (glucose) ([2]; Day 70): 56.3; K (potassium) ([2]; Day 70): 4.9; NEFA (non-esterified fatty acid) ([2]; Day 70): 168; Na (sodium) ([2]; Day 70): 141.1; TG (triglyceride) ([2]; Day 70): 22.1; TP (total protein) ([2]; Day 70): 6.3
